Measured values published in ChEMBL document CHEMBL3885861, “Open TG-GATES”.

Organism: Rattus norvegicus
Test: Open TG-GATES - Regimen: Daily Repeat
Type: toxicity, organism-based, Sprague-Dawley
Parameters: regimen Daily Repeat, gender Male, age 6 weeks
Settings: in vivo, po, 1000 mg/kg, […], route gavage, dose level High; for KIDNEY_L / KIDNEY_R / KIDNEY_TOTAL: tissue Kidney; for LIVER: tissue Liver; for A/G / ALP / ALT / AST / BUN / CRE / Ca / Cl / DBIL / GLC / IP / K / LDH / Na / PL / RALB / TBIL / TC / TG / TP / gamma-GTP: tissue Plasma

Compound: CCOC(=O)CCC(=O)O[C@H]1[C@H](O[C@@H]2[C@@H](C)[C@H](O[C@H]3C[C@@](C)(OC)[C@@H](O)[C@H](C)O3)[C@@H](C)C(=O)O[C@H](CC)[C@@](C)(O)[C@H](O)[C@@H](C)C(=O)[C@H](C)C[C@@]2(C)O)O[C@H](C)C[C@@H]1N(C)C [ERYTHROMYCIN ETHYLSUCCINATE]
- Lym (tissue Blood, time 28 day): 82.4%
- MCH (tissue Blood, time 28 day): 18.9 pg
- MCHC (tissue Blood, time 28 day): 34.7%
- MCV (tissue Blood, time 28 day): 54.3 fL
- Mono (tissue Blood, time 28 day): 2.2%
- Neu (tissue Blood, time 28 day): 12.6%
- PT (tissue Blood, time 28 day): 16.3 s
- Plat (tissue Blood, time 28 day): 102.9 x10_4/uL
- RBC (tissue Blood, time 28 day): 804.4 x10_4/ul
- Ret (tissue Blood, time 28 day): 2.3%
- WBC (tissue Blood, time 28 day): 79.8 x10_2/uL
- KIDNEY_L (time 7 day): 1.1 g
- KIDNEY_R (time 7 day): 1.1 g
- KIDNEY_TOTAL (time 7 day): 2.2 g
- KIDNEY_L (time 14 day): 1.2 g
- KIDNEY_R (time 14 day): 1.2 g
- KIDNEY_TOTAL (time 14 day): 2.4 g
- KIDNEY_L (time 28 day): 1.4 g
- KIDNEY_R (time 28 day): 1.4 g
- KIDNEY_TOTAL (time 28 day): 2.8 g
- LIVER (time 7 day): 10.1 g
- LIVER (time 14 day): 12.3 g
- LIVER (time 28 day): 13.8 g
- A/G (time 7 day): 1.1
- ALP (time 7 day): 1998.2 IU/L
- ALT (time 7 day): 35.2 IU/L
- AST (time 7 day): 71.8 IU/L
- BUN (time 7 day): 18.2 mg/dL
- CRE (time 7 day): 0.2 mg/dL
- Ca (time 7 day): 10.5 mg/dL
- Cl (time 7 day): 108.2 meq/L
- DBIL (time 7 day): 0 mg/dL
- GLC (time 7 day): 188.6 mg/dL
- IP (time 7 day): 7.4 mg/dL
- K (time 7 day): 4.1 meq/L
- LDH (time 7 day): 156.6 IU/L
- Na (time 7 day): 141.8 meq/L
- PL (time 7 day): 155 mg/dL
- RALB (time 7 day): 2.8 g/dL
- TBIL (time 7 day): 0.01 mg/dL
- TC (time 7 day): 84.8 mg/dL
- TG (time 7 day): 97.6 mg/dL
- TP (time 7 day): 5.4 g/dL
- gamma-GTP (time 7 day): 1.6 IU/L
- A/G (time 14 day): 1.1
- ALP (time 14 day): 1716 IU/L
- ALT (time 14 day): 36 IU/L
- AST (time 14 day): 68.8 IU/L
- BUN (time 14 day): 19.6 mg/dL
- CRE (time 14 day): 0.2 mg/dL
- Ca (time 14 day): 10.7 mg/dL
- Cl (time 14 day): 108.6 meq/L
- DBIL (time 14 day): 0 mg/dL
- GLC (time 14 day): 187 mg/dL
- IP (time 14 day): 6.6 mg/dL
- K (time 14 day): 4.4 meq/L
- LDH (time 14 day): 161 IU/L
- Na (time 14 day): 142 meq/L
- PL (time 14 day): 163.2 mg/dL
- RALB (time 14 day): 2.9 g/dL
- TBIL (time 14 day): 0.006 mg/dL
- TC (time 14 day): 88.8 mg/dL
- TG (time 14 day): 140.8 mg/dL
- TP (time 14 day): 5.6 g/dL
- gamma-GTP (time 14 day): 1.8 IU/L
- A/G (time 28 day): 1.1
- ALP (time 28 day): 1257.4 IU/L
- ALT (time 28 day): 37 IU/L
- AST (time 28 day): 67.6 IU/L
- BUN (time 28 day): 19.2 mg/dL
- CRE (time 28 day): 0.2 mg/dL
- Ca (time 28 day): 10.4 mg/dL
- Cl (time 28 day): 108.8 meq/L
- DBIL (time 28 day): 0.002 mg/dL
- GLC (time 28 day): 173 mg/dL
- IP (time 28 day): 6.9 mg/dL
- K (time 28 day): 4.1 meq/L
- LDH (time 28 day): 132.8 IU/L
- Na (time 28 day): 141.8 meq/L
- PL (time 28 day): 138 mg/dL
- RALB (time 28 day): 3 g/dL
- TBIL (time 28 day): 0.012 mg/dL
- TC (time 28 day): 75.2 mg/dL
- TG (time 28 day): 99.6 mg/dL
- TP (time 28 day): 5.7 g/dL
- gamma-GTP (time 28 day): 1.6 IU/L
